The target in one series is Cholinesterase (Equus caballus, UniProt P81908).
For another series, the target named is Acetylcholinesterase (Electrophorus electricus, UniProt O42275).
Series [1] relates to HT-22. Description: Neuroprotective activity against glutamate induced oxidative stress in mouse hippocampal HT22 cells assessed as cell viability at 25 uM after 24 hrs by MTT assay. The series is classed as functional, cell-based. On the technique in general: Tetrazolium dyes change colour on reduction, which living cells bring about.
The test system of series [2] is HT-22. Description: Neuroprotective activity against glutamate induced oxidative stress in mouse hippocampal HT22 cells assessed as cell viability at 10 uM after 24 hrs by MTT assay. It counts as functional, cell-based.
In series [3] the test system is HT-22. Description: Neurotoxicity in mouse hippocampal HT22 cells assessed as cell viability at 10 uM after 24 hrs by MTT assay. It counts as toxicity, cell-based. The following applies: ht-22, 24 h.
Series [4] concerns HT-22. As to the kind of experiment: Neurotoxicity in mouse hippocampal HT22 cells assessed as cell viability at 1 uM after 24 hrs by MTT assay. It counts as toxicity, cell-based. The conditions noted are these: ht-22, 24 h.
The nature of series [5]: Hepatotoxicity against human HSC cells assessed as reduction in cell number at 10 to 75 uM after 24 hrs by fluorescence microscopic analysis. The series is classed as toxicity, cell-based.
For series [6], the system named is HT-22. As to the kind of experiment: Neuroprotective activity against glutamate induced oxidative stress in mouse hippocampal HT22 cells assessed as cell viability at 1 uM after 24 hrs by MTT assay. The series is classed as functional, cell-based.
The subject of series [7] is Rattus norvegicus. As to the kind of experiment: Hepatoprotective activity in Wistar rat assessed as decrease in tissue content of TBARS at 2 uM/100 gram of body weight, ip after 24 hrs. The series is classed as functional. Also on record: scale not given: the % may be the effect or the level left.
Series [8] is described as follows: Hepatotoxicity against human HSC cells assessed as mitochondrial swelling at 50 to 75 uM after 24 hrs by fluorescence microscopic analysis. The series is classed as toxicity, cell-based.
Series [9] is described as follows: Hepatotoxicity against human HSC cells assessed as reduction in cell number up to 200 uM after 24 hrs using crystal violet staining by photometry. The series is classed as toxicity, cell-based.
Series [10] concerns HT-22. As to the kind of experiment: Neuroprotective activity against glutamate induced oxidative stress in mouse hippocampal HT22 cells assessed as cell viability at 50 uM after 24 hrs by MTT assay. It counts as functional, cell-based.
The subject of series [11] is HT-22. As to the kind of experiment: Neurotoxicity in mouse hippocampal HT22 cells assessed as cell viability at 25 uM after 24 hrs by MTT assay. The series is classed as toxicity, cell-based. The following applies: ht-22, 24 h.
The test system of series [12] is Rattus norvegicus. As to the kind of experiment: Hepatoprotective activity against tacrine-induced toxicity in Wistar rat liver assessed as decrease in tissue content of TBARS at 2 uM/100 gram of body weight, ip after 24 hrs. The series is classed as functional. Also on record: scale not given: the % may be the effect or the level left.
In series [13] the test system is Rattus norvegicus. As to the kind of experiment: Hepatoprotective against tacrine-induced toxicity in Wistar rat liver assessed as increase in ratio of reduced/oxidised glutathione at 6 uM/100 gram of body weight, ip after 24 hrs. The series is classed as functional, organism-based.
In series [14] the test system is Rattus norvegicus. Description: Hepatoprotective against tacrine-induced toxicity in Wistar rat liver assessed as increase in ratio of reduced/oxidised glutathione at 2 uM/100 gram of body weight, ip after 24 hrs. The series is classed as functional, organism-based.
Series [15] deals with Cholinesterase (Equus caballus) (UniProt P81908). Description: Inhibition of […] at 100 uM by colorimetric Ellman assay.
The target in series [16] is Acetylcholinesterase (Electrophorus electricus) (UniProt O42275). As to the kind of experiment: Inhibition of electric eel AChE at 100 uM by colorimetric Ellman assay.

Each structure is given as a SMILES string. The source made the active and inactive calls. No cut-off for these calls is given here.

By IC50 is commonly meant the point on the concentration scale where inhibition reaches its midpoint. As usually defined, the inhibition is the drop in the measured response relative to a control, in per cent.

Chain of Acetylcholinesterase (O42275 whole entry): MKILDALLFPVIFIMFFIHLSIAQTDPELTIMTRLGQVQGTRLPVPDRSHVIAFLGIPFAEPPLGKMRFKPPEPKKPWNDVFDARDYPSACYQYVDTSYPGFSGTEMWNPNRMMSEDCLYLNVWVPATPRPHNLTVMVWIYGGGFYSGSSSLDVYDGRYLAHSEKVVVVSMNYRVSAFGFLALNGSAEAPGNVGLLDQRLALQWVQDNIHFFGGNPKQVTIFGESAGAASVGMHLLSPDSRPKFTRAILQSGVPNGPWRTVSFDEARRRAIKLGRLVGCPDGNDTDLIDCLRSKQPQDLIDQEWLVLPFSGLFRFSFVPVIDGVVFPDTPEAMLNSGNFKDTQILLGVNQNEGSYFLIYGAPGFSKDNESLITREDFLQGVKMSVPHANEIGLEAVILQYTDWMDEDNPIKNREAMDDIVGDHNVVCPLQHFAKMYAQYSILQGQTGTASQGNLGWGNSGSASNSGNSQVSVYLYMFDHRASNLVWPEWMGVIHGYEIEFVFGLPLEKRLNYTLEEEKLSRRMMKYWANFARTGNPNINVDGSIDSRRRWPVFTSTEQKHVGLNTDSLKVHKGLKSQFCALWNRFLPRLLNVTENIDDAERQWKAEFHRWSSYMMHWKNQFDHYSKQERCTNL
Chain of Cholinesterase (P81908 whole entry): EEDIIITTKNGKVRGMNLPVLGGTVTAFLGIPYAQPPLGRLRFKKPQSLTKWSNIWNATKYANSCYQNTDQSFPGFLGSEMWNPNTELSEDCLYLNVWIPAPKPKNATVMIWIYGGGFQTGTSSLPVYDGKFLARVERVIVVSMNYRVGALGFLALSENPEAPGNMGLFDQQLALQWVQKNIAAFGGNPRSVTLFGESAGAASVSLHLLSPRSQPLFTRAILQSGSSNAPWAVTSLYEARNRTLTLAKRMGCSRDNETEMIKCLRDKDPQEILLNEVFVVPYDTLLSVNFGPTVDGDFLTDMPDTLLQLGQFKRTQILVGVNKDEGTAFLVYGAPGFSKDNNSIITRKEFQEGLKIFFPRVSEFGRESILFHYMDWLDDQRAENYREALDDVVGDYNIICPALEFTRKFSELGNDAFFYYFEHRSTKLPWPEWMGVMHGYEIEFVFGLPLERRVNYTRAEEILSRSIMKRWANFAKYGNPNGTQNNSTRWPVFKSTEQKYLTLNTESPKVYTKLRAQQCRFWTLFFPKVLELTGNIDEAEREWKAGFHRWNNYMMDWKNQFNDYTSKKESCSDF
Chain of Acetylcholinesterase (Electrophorus electricus) (O42275 24-633 limits assumed): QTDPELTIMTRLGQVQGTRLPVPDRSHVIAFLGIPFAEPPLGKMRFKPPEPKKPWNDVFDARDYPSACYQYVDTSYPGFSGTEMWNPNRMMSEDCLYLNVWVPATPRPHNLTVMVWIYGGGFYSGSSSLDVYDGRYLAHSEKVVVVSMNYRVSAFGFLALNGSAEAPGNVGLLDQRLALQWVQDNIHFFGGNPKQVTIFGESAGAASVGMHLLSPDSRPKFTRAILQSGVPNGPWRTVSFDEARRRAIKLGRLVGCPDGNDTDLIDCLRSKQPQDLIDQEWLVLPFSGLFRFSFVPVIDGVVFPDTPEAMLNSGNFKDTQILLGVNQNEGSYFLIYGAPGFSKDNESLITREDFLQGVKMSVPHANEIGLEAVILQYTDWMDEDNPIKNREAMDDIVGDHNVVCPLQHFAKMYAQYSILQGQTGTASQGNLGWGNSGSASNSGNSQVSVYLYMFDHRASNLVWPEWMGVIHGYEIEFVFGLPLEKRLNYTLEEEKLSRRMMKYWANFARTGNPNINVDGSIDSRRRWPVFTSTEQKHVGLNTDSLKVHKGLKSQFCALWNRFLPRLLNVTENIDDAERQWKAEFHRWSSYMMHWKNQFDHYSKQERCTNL
Chain of Cholinesterase (Equus caballus) (P81908 whole entry): as the sequence (P81908 whole entry) above

As to `O=C(O)CCC(=O)NCCCCCCNc1c2c(nc3ccccc13)CCCC2`, the figures for the IC50 against Cholinesterase and at Acetylcholinesterase were 361 nM and 102 nM, respectively.

Consider `NCCCCCCNc1c2c(nc3ccccc13)CCCC2`, for which the IC50 against Cholinesterase turned out to be 2 nM; on Acetylcholinesterase, 39 nM.

Consider `COc1cc([C@@H]2Oc3cc([C@H]4Oc5cc(O)cc(O)c5C(=O)[C@@H]4O)ccc3O[C@H]2COC(=O)CCC(=O)NCCCCCCNc2c3c(nc4ccccc24)CCCC3)ccc1O`, for which the half-maximal inhibitory concentration (IC50) against Cholinesterase came to 49.7 nM; at Acetylcholinesterase, 53.9 nM. In addition, the result in the series on HT-22 [1], in the series on HT-22 [2], with HT-22 [6] and with HT-22 [10] was Active. Besides, the Activity result in the series with HT-22 [3] was “Non-toxic”; with HT-22 [4], “Non-toxic”; in [5], “Non-toxic”; with Rattus norvegicus [7] it was 25%; in series [8], “Non-toxic”; in series [9] it was “Non-toxic”. For the same molecule, in the series with HT-22 [11], the Activity entry was “Non-toxic”.

`COc1cc(C2Oc3cc([C@H]4Oc5cc(O)cc(O)c5C(=O)[C@@H]4O)ccc3OC2CO)ccc1O` (stereo partly specified) [SILIBININ]: the result in the series on HT-22 [1], in the series on HT-22 [2], with HT-22 [6] and in the series with HT-22 [10] was inactive. Further, the Activity with Rattus norvegicus [12] turned out to be 15%. Further, the outcome in the series on Rattus norvegicus [13] and in the series with Rattus norvegicus [14] was Active. Besides, the values for the inhibition in series [15] and in series [16] were 3.1% and 5.5%, respectively.

Source of the values: ChEMBL document CHEMBL2203098 (J Med Chem, 2012).
